# Source: article PMC6973269, “Lipidated Stapled Peptides Targeting the Acyl Binding Protein UNC119” (Chembiochem, 2019)
# Where a SMILES comes first, the peptide text is derived from it. Bridges are numbered along the chain shown (N, C = ends). [ ]: non-standard residue; d: D form. The star is where a group is joined. Myristoyl = CCCCCCCCCCCCCC(=O)*; S5 = C=CCCC[C@](C)(N)C(=O)O
# Assays:
# HeLa cells [1] = assay: Fluorescence microscopy of cell morphology (tubulin antibody, DAPI); type: cell-based, human; settings: 1 μM, 24 h, fixation, anti-tubulin antibody and DAPI staining
# Protocol: 2x10^4 Hela cells were seeded per well in a 24-well plate on cover slips and incubated overnight. Next day, cells were treated with different concentrations of the peptides or DMSO, nocodazole and cytochalasin D as controls and incubated at 37°C and 5% CO2 for the indicated times (72 h or 24 h). Cells were then fixed using 3.7% paraformaldehyde for 15 min at room temperature followed by permeabilization using 0.1% Triton X-100 in PBS for 15 min. Blocking was performed in 2% BSA in PBS containing 0.1% Tween 20 for 1 h at room temperature. Samples were incubated with the indicated primary antibodies (anti-tubulin primary antibody conjugated to FITC) in the blocking solution overnight at 4°C. After washing, cells were incubated with 1 µg/mL DAPI in blocking solution for 1 h at room temperature, followed by three washes with PBS.
# HeLa cells [2] = assay: DNA content (4N) by propidium iodide staining and flow cytometry, HeLa cells; type: cell-based, human; settings: control compound 1 µM (maximum tolerated concentration), 24 h, flow cytometry, triplicate, error 1 σ
# Protocol: (§1) 3 x10^4 L or Hela cells were seeded per well in 6–well plates and grown overnight. The following day, cells were treated with the indicated compound concentrations for 72 h or with nocodazole as a control for 24 h). Cells were washed, detached using trypsin and re-suspended in phosphate-buffered saline (PBS).
# (§2) Cells were centrifuged at 200xg for 5 min at room temperature (RT) and washed again. Cells were then fixed with 70% ethanol and stained with propidium iodide solution (12 µg/mL propidium iodide (Sigma, Germany), 0.1% (v/v) Triton X-100 and 100 µg/mL DNase-free RNase A (Sigma, Germany) in PBS) for 30 min at room temperature. Cell suspensions were filtered to FACS tubes through a nylon mesh before analysis.
# (§3) 10,000 cells for each sample were sorted by the BD LSRII analyzer (Becton Dickinson, USA). FlowJo 6.2.1 software was used for quantification and analysis of all data. For every analysis, FSC and SSC (forward and side scatter, respectively) gating was performed to exclude doublets and debris. In addition, cells were gated for singlets (PI-W vs. PI-A). […]
# mouse fibroblast L cells = assay: DNA content (4N) by propidium iodide staining and flow cytometry, L cells; type: cell-based; settings: control compound 1 µM (maximum tolerated concentration), 24 h, flow cytometry, triplicate, error 1 σ
# Protocol: as §1, §2, §3
# UNC119b = molecular target: T1, UNC119b (Homo sapiens, UniProt A6NIH7); assay: Fluorescence anisotropy binding assay, UNC119b; settings: 5 nM fluorescein-labeled peptide, 4 h at room temperature, 30 mM Tris pH 7.5, 100 mM NaCl, 1 mM TCEP, 0.01% Chaps, triplicate, error 1 σ
# T1 construct: made in house; host or cells: E. coli
# T1 sequence (A6NIH7 whole entry, species assumed): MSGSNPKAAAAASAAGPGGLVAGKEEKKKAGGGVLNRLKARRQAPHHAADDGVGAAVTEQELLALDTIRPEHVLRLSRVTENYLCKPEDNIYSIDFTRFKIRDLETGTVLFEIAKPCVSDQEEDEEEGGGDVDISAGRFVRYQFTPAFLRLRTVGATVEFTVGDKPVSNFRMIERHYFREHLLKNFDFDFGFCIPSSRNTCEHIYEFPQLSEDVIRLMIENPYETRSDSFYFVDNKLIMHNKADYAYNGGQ
# Protocol: (§4) Fluorescence anisotropy assay
# (§5) UNC119a/b was serially diluted in a buffer containing 30 mM Tris (pH 7.5), 100 mM NaCl, 1 mM TCEP and 0.01% Chaps (assay buffer), treated with 5 nM fluorescein-labeled peptides and incubated for 4 h at room temperature. Binding assays were performed in 384-well, small volume, black flat-bottom, non-binding plates (Greiner). Fluorescence polarization values (λex = 470 nm, λem = 525 nm) were determined using a Safire II plate reader (Tecan) at room temperature. All measurements were performed in triplicates. After correction for changes in fluorescence intensity upon binding, the fluorescence anisotropy data were converted into fraction bound (equation 1) of the FITC- labeled peptide and fitted via non-linear regression in Prism 5.0 (Graphpad).[1] fraction bound = A−Afree (1)
# (§6) Afree: anisotropy of free fluorophore
# (§7) Abound: anisotropy of bound fluorophore
# (§8) Q: change in fluorescence intensity between free and bound state
# (§9) Protein expression and purification
# (§10) UNC119a and UNC119b were expressed in E. coli according to the previously reported procedures.[2] […]
# (§11) Additionally, HeLa cells were supplemented with penicillin and streptomycin. All cultures were routinely tested and found to be free of mycoplasma contamination.
# HeLa cells [3] = assay: Cellular uptake of fluorescently labeled peptides by flow cytometry; type: cell-based, human; settings: fluorescently labeled peptide, 5 μM, 90 min, flow cytometry fluorescence intensity, % of levels observed for R8
# Protocol: As the knock‐down of UNC119a was reported to increase the number of cytokinetic and binucleated cells,13 we investigated the influence of UNC119‐binding peptides on cell morphology. Initially, the uptake of fluorescently labeled peptide 4 by HeLa cells was investigated by using flow cytometry (c=5 μM for 90 min, Figure S4 and Table S2). These measurements show cellular uptake of 4 reaching about 50 % of the levels observed for cell‐penetrating peptide octa‐arginine (R8).30 Considering that this cellular uptake was sufficient, we tested the effect of unlabeled peptide 4 on cell morphology. As a reference, we used nocodazole (NC), which inhibits tubulin polymerization thereby inducing cell‐cycle arrest in the G2/M phase that results in cells with increased DNA content because chromosomal DNA has already been duplicated. HeLa and mouse fibroblast L cells were incubated with different peptide concentrations for 72 h prior to quantification of DNA content by using flow cytometry.
# Supporting Figure S4. Cellular uptake of fluorescently labeled peptides as determined by fluorescence
# intensities using flow cytometry in HeLa cells (90 min incubation at c(peptide) = 5 µM).
# (1 picture or pasted object on this page, not shown here)
# MDA-MB-231 cells [4] = assay: Total intracellular peptide concentration by quantitative UPLC-MS; type: in vitro ADME; settings: for Total drug content, pMols/million cells / Total drug content, Measured Conc: 25 µM compound, 0.5 h; for Total drug content, pMols/million cells: total lysis; for Total drug content, pMols/million cells / Total drug content, Measured Conc / Peptide concentration, total cell, 0.5 h: UPLC-MS; for Fold higher total cell uptake than peptide 10: 25 μM, 30 min, quantitative mass spectrometry; for Fold higher total cell uptake than peptide 10 / Peptide concentration, total cell, 0.5 h: MDA-MB-231 cells; for Total drug content, Measured Conc: concentration in re-suspended cell lysate, dilution factor 10; for Peptide concentration, total cell, 0.5 h: unlabeled peptide 25 μM, 0.5 h incubation, RIPA total lysis, LLOQ given if not detected
# Protocol: (§12) Total intracellular and sub cellular concentrations
# (§13) […] cells were cultured DMEM (high glucose) supplemented with 10% FCS and 1% Glutamax.
# (§14) When 80% confluency cell culture media was removed from each flask and new media containing 25 µM of peptides was added and incubated with cells for 30 min and 72 h. Following peptide incubation, cells were washed twice with PBS, trypsinized and pelleted. Pellets where lysed in RIPA buffer (Perkin Elmer) for total […]
# (§15) lysis; or CelLytic NuCLEAR Extraction Kit (SIGMA) for subcellular fractionation. Total protein quantification BCA (Pierce) was performed prior to MS analysis to normalize sample data.
# (§16) Total and sub-cellular quantities of peptides 4, 10 and R8 were quantified[3] in lysates by UPLC-MS utilising a Waters Xevo TQ-XS (WBA0259) and a Waters Acquity UPLC system consisting of, Sample Manager (M16UFL953M), Acquity PDA (F17UPD457A), Column Oven (E17CMP703G) and Binary Solvent Manager (E17BUR621G). For peptides 4 and 10 analytical UPLC separation was performed using a Waters CSH C18 1.7 µm, 2.1 x 50 mm column. A gradient was utilized of 97% A to 5% in 4mins, 0.5 min hold, 5% A to 97% in 0.5mins, where A = 0.1% HCOOH (aq) and B = 0.1% HCOOH in MeCN at a flow rate of 0.75 mL/min (Supporting Figure S7). Compound R8 was analyzed in HILIC mode using a Waters BEH Amide 1.7 µm, 2.1 x 100 mm column with a gradient of 30% A to 95% in 1.5 mins, 1 min hold, 95% A to 30% in 1.5 min, 1 min hold at 0.65 mL/min. The Waters TQ-XS was operated in +ve ion Electrospray (ESI) mode with the optimized transitions for PC658-AC, PC658-MYR and Ac-R8 (Supporting Table S3 and Figure S8). The chromatograms at each transition were extracted, smoothed and integrated to give the standard curve. Chromatograms of the samples were treated similarly and by linear regression (1/x) an in-cell concentration was established in the re-suspended cell lysate using the Waters MassLynx TargetLynxTM product (Supporting Tables S4 – S7).
# MDA-MB-231 cells [5] = assay: Subcellular (nucleus, cytosol) peptide concentration by quantitative UPLC-MS; type: in vitro ADME; settings: for Peptide concentration, cytosol, 0.5 h / Peptide concentration, nucleus, 0.5 h / Peptide concentration, cytosol, 72 h / Peptide concentration, nucleus, 72 h: unlabeled peptide 25 μM, MDA-MB-231 cells, subcellular fractionation, LLOQ given if not detected; for Peptide concentration, cytosol, 0.5 h / Peptide concentration, nucleus, 0.5 h: 0.5 h incubation; for Peptide concentration, cytosol, 72 h / Peptide concentration, nucleus, 72 h: 72 h incubation
# Protocol: as §12, §13, §14, §15, §16
# UNC119a = molecular target: T2, UNC119a (Homo sapiens, UniProt Q13432); assay: Fluorescence anisotropy binding assay, UNC119a; settings: 5 nM fluorescein-labeled peptide, 4 h at room temperature, 30 mM Tris pH 7.5, 100 mM NaCl, 1 mM TCEP, 0.01% Chaps, triplicate, error 1 σ
# T2 construct: made in house; host or cells: E. coli
# Protocol: as §4, §5, §6, §7, §8, §9, §10, §11
# [6] = 25 µM compound, 0.5 h, concentration in lysate
# [7] = 25 µM compound, 72 h, concentration in lysate
Kd (UNC119b) [nM],"Total drug content, pMols/million cells (MDA-MB-231 cells [4]) [pMols/million cells]",Fold higher total cell uptake than peptide 10 (MDA-MB-231 cells [4]),"Total drug content, Measured Conc (MDA-MB-231 cells [4]) [nM]","Peptide concentration, total cell, 0.5 h (MDA-MB-231 cells [4]) [pmol per 10^6 cells]","Peptide concentration, cytosol, 0.5 h (MDA-MB-231 cells [5]) [pmol per 10^6 cells]","Peptide concentration, nucleus, 0.5 h (MDA-MB-231 cells [5]) [pmol per 10^6 cells]","Peptide concentration, cytosol, 72 h (MDA-MB-231 cells [5]) [pmol per 10^6 cells]","Peptide concentration, nucleus, 72 h (MDA-MB-231 cells [5]) [pmol per 10^6 cells]",Kd (UNC119a) [nM],Structure (SMILES),other results
–,–,–,–,–,–,–,–,–,–,COC(=O)Nc1nc2ccc(C(=O)c3cccs3)cc2[nH]1 [nocodazole],"Effect on HeLa cell morphology (HeLa cells [1]): deformation of the tubulin network; DNA-content 4N, HeLa cells (HeLa cells [2]): 68.6 ±4.2%; DNA-content 4N, HeLa cells (HeLa cells [2]; listed as NC): increased numbers of cells with doubled DNA content; DNA-content 4N, L cells (mouse fibroblast L cells): 75.4 ± 15.0%; DNA-content 4N, L cells (mouse fibroblast L cells; listed as NC): increased numbers of cells with doubled DNA content"
63.2 ± 14,59.9,more than 100 fold,155,60,<0.001,0.22,0.01,0.45,5.5,CCCCCCCCCCCCCC(=O)NCC(=O)N[C@@H](C)C(=O)NCC(=O)N[C@@H](C)C(=O)N[C@@H](CO)C(=O)N[C@@]1(C)CCCC=CCCC[C@@](C)(C(=O)N[C@@H](CCCCN)C(N)=O)NC(=O)[C@H](CCCCN)NC(=O)[C@H](CCC(=O)O)NC(=O)[C@H](CCC(=O)O)NC1=O [Peptide 4] (Myristoyl-GAGAS[S5]EEK[S5]K-NH2; staple 6-10),Cellular uptake relative to octa-arginine (R8) (HeLa cells [3]): about 50%
11.2,–,–,–,–,–,–,–,–,7.4,CCCCCCCCCCCCCC(=O)NCC(=O)N[C@@H](C)C(=O)NCC(=O)N[C@@H](C)C(=O)N[C@@H](CO)C(=O)N[C@@H](C)C(=O)N[C@@H](CCC(=O)O)C(=O)N[C@@H](CCC(=O)O)C(=O)N[C@@H](CCCCN)C(=O)N[C@@H](Cc1c[nH]cn1)C(=O)N[C@@H](CCCCN)C(N)=O [Peptide 1] (Myristoyl-GAGASAEEKHK-NH2),–
–,51.7,more than 100 fold,108,52,0.58,0.56,0.65,0.64,–,CC(=O)N[C@@H](CCCNC(=N)N)C(=O)N[C@@H](CCCNC(=N)N)C(=O)N[C@@H](CCCNC(=N)N)C(=O)N[C@@H](CCCNC(=N)N)C(=O)N[C@@H](CCCNC(=N)N)C(=O)N[C@@H](CCCNC(=N)N)C(=O)N[C@@H](CCCNC(=N)N)C(=O)N[C@@H](CCCNC(=N)N)C(N)=O [R8],"Sub-cellular drug content, pMols/million cells, Cytoplasm, 0.5 h (MDA-MB-231 cells [5]; 25 µM compound, 0.5 h): 0.584 pMols/million cells; Sub-cellular drug content, pMols/million cells, Nuclear, 0.5 h (MDA-MB-231 cells [5]; 25 µM compound, 0.5 h): 0.563 pMols/million cells; Sub-cellular drug content, Measured Conc, Cytoplasm, 0.5 h (MDA-MB-231 cells [5]; [6]): 3.59 nM; Sub-cellular drug content, Measured Conc, Nuclear, 0.5 h (MDA-MB-231 cells [5]; [6]): 6.91 nM; Sub-cellular drug content, pMols/million cells, Cytoplasm, 72 h (MDA-MB-231 cells [5]; 25 µM compound, 72 h): 0.651 pMols/million cells; Sub-cellular drug content, pMols/million cells, Nuclear, 72 h (MDA-MB-231 cells [5]; 25 µM compound, 72 h): 0.638 pMols/million cells; Sub-cellular drug content, Measured Conc, Cytoplasm, 72 h (MDA-MB-231 cells [5]; [7]): 2.92 nM; Sub-cellular drug content, Measured Conc, Nuclear, 72 h (MDA-MB-231 cells [5]; [7]): 5.73 nM"
